The results in this text go back to patent publication US20230416199A1, “INHIBITORS OF AMINO ACID TRANSPORT” (ICAHN SCHOOL OF MEDICINE AT MOUNT SINAI, priority 2020, published 2023).

Assay type in all cases: cell-based
For one assay, the target named is T1, hASCT1 (Homo sapiens, UniProt P43007).
T1 construct: expressed in transfected cells; host or cells: HEK293 (ATCC CRL-11268), transient transfection
T1 sequence (P43007 1-532): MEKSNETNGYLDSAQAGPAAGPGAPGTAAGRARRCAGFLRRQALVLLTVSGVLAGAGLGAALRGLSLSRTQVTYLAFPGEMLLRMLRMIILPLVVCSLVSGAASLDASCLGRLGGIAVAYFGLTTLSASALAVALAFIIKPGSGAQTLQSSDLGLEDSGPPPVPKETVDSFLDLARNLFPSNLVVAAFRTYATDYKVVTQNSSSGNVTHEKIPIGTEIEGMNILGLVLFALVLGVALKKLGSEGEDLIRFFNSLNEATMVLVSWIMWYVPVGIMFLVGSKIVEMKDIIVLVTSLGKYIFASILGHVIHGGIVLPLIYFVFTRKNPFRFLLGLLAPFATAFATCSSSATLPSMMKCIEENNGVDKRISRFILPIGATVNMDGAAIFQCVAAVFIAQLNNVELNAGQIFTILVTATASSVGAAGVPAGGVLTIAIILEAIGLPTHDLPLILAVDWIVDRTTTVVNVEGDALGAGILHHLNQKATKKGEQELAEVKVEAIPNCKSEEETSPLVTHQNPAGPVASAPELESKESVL
The assay is described as follows: Electrophysiology (whole-cell current recording) of transfected HEK293 cells, hASCT1. The note with it: Table 3, dihydroxyproline derivatives; read-out: Ki All DNA: hASCT1. The procedure:
(§1) Human embryonic kidney 293 (HEK293, ATCC CRL-11268) cells were cultured in DMEM media supplemented with 10% (v v) fetal bovine serum (FBS), 2 mM glutamine, 1% penicillin streptomycin solution, 1 mM sodium pyruvate and non-essential amino acids. Cells were maintained at 37° C. in a fully humidified atmosphere containing 5% CO2. rASCT2, hASCT2, hASCT1, EAAT1, EAAT2, EAAC1, EAAT5 and YFP complementary DNAs were each used to transiently transfect HEK293 using POLYPLUS Jet-prime transfection reagent. Cells were analyzed using electrophysiological techniques 24-40 hours after transfection.
(§2) Stock solutions of inhibitor was prepared in dimethyl sulfoxide (DMSO) up to 100 mM. Dilutions to working concentrations were made using external buffer. […] For rASCT2, hASCT2 and hASCT1, external buffer contained 140 mM NaCl, 2 mM MgCl2, 2 mM CaCl2), and 10 mM HEPES, pH 7.40 while internal pipette solution comprised of 130 mM NaSCN, 2 mM MgCl2, 10 mM EGTA, 10 mM HEPES and 10 mM alanine, pH 7.40. For specificity experiments with EAAT1, EAAT2, EAAC1 and EAAT5, internal solution contained 10 mM glutamate instead of alanine. Compounds were applied to HEK293 cells expressing DNA of interest suspended from a current recording electrode in whole cell configuration through a rapid solution exchange device. Cells are immersed in external buffer bath used to dissolve the inhibitors. The open pipette resistance was between 3 and 6 MΩ. Series resistance was not compensated in these experiments due to relatively small currents. Currents traces were recorded using an Adams and List EPC7 amplifier and digitized using a Molecular Devices Digidata A/D converter.
(§3) Linear and nonlinear curve fitting of the experimental data were analyzed using MicroCal Origin software. Nonlinear dose-response relationships were fitted with a Michaelis-Menten-like equation to obtain apparent Ki values in the absence of substrate (see TABLE 2 for Ki values). The figures show representative current traces and dose-response curves for hACST2 and rASCT2, used to obtain Ki values in TABLE 2 for compound SN 40. At least four experiments were performed with at least three different cells. Error bars in all graphs, e.g., in FIG. 1B and FIG. 1C and tables (Ki values) represent mean±SD.

The target in assay [1] is T2, rASCT2 (Rattus norvegicus, UniProt D3ZJ25).
T2 construct: expressed in transfected cells; host or cells: HEK293 (ATCC CRL-11268), transient transfection
T2 sequence (D3ZJ25 1-555): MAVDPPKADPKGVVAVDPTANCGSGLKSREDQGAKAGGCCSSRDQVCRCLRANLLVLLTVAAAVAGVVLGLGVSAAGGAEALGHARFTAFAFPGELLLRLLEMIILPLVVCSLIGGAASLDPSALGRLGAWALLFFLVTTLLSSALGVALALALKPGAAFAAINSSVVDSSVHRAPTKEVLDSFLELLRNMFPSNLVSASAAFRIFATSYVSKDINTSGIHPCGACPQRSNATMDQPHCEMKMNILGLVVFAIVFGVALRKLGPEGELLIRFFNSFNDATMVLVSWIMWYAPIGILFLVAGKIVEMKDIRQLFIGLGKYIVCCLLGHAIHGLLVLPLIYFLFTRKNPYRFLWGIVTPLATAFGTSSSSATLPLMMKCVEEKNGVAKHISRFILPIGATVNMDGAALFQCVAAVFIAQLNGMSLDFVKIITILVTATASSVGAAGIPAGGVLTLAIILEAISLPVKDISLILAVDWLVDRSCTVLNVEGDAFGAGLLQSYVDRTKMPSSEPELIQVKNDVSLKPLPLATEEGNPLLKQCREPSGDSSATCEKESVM
The assay is described as follows: Electrophysiology (whole-cell current recording) of transfected HEK293 cells, rASCT2. The note with it: Table 3, dihydroxyproline derivatives. The procedure:
as §1, §2, §3

The target in assay [2] is T3, hASCT2 (Homo sapiens, UniProt Q15758).
T3 construct: expressed in transfected cells; host or cells: HEK293 (ATCC CRL-11268), transient transfection
T3 sequence (Q15758 1-541): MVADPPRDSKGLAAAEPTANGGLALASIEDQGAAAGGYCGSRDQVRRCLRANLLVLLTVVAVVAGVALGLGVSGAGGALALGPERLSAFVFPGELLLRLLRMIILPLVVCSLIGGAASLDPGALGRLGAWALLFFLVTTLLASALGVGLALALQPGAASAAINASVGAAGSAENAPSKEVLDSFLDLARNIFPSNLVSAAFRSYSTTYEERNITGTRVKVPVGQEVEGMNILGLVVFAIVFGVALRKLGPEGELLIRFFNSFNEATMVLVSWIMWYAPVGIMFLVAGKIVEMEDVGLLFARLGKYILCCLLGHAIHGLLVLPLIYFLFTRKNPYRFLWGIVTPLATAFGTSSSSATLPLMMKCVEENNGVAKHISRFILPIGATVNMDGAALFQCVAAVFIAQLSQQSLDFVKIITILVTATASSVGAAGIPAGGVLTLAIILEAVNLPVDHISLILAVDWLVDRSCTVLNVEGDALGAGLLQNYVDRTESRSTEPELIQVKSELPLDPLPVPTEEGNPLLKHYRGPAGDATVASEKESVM
The assay is described as follows: Electrophysiology (whole-cell current recording) of transfected HEK293 cells, hASCT2. Conditions: Table 3, dihydroxyproline derivatives. The protocol: as §1, §2, §3

The target in assay [3] is T3, hASCT2. The assay is described as follows: Competition experiment with alanine, hASCT2. Conditions: 1 mM ala, first entry of the cell; for pKi: read-out: Competition Expt (h/rASCT2 Ki): hASCT2 Ki.
Assay [4] deals with T2, rASCT2. The assay is described as follows: Competition experiment with alanine, rASCT2. Conditions: 1 mM ala, second entry of the cell; for pKi: read-out: Competition Expt (h/rASCT2 Ki): rASCT2 Ki.

Each structure is given as a SMILES string. pKi: −log10 of the molar value.

Turning to `O=C(OC[C@@]1(O)CN[C@H](C(=O)O)C1)c1ccc(-c2ccc(C(F)(F)F)cc2)cc1` [SN59], the pKi was 8.70 on hASCT1; 8.30 at rASCT2 [1] (read-out: Ki All DNA: rASCT2); 5.49 at hASCT2 [2] (read-out: Ki All DNA: hASCT2); 4.71 at hASCT2 [3]; 6.82 on rASCT2 [4]. For the same compound, the “Competition Expt % block (given as a decimal): hASCT2” value on hASCT2 [3] is recorded as “full”. Moreover, the “Competition Expt % block (given as a decimal): rASCT2” value on rASCT2 [4] is “full”.

In the case of `O=C(OC[C@@]1(O)CN[C@H](C(=O)O)C1)c1ccc(-c2ccc(F)cc2)cc1` [SN58], the pKi on hASCT1 was 5.51. For the same compound, the “Ki All DNA: rASCT2” value at rASCT2 [1] is reported as “Very Low”. Besides, the “Ki All DNA: hASCT2” value at hASCT2 [2] is “Very Low”. For the same compound, at hASCT2 [3], the “Competition Expt % block (given as a decimal): hASCT2” value is on record as “full” and the pKi was 4.72. At rASCT2 [4], the “Competition Expt % block (given as a decimal): rASCT2” value is “full” and the pKi was 4.89.
